For twelve compounds, IC50 results are on record in patent US20260070945A1, “MACROCYCLIC IMMUNOMODULATORS” (Bristol-Myers Squibb Company, priority 2022, published 2026).

pIC50: −log10 of the molar value. *1 amine or outer side, *2 acyl side, *3 side chain or, on linkers, in order; H or OH if unused. Where a SMILES comes first, the peptide text is derived from it. Bridges are numbered along the chain shown (N, C = ends). [ ]: non-standard residue; d: D form. The star is where a group is joined. ξ: configuration not given here. Phe(3-CF3) = N[C@@H](Cc1cccc(C(F)(F)F)c1)C(=O)O; Ala(morpholin-4-yl) = N[C@@H](CN1CCOCC1)C(=O)O; Phe(4-COOH) = N[C@@H](Cc1ccc(C(=O)O)cc1)C(=O)O; Bip = N[C@@H](Cc1ccc(-c2ccccc2)cc1)C(=O)O; Phe(3-Me) = Cc1cccc(C[C@H](N)C(=O)O)c1; γGlu = O=C(O)[C@H](CCC(=O)[*:2])N[*:1]; NH(CH2)12COOH = O=C(O)CCCCCCCCCCCCN*; Val(3-OH) = CC(C)(O)[C@H](N)C(=O)O; hArg = N=C(N)NCCCC[C@H](N)C(=O)O; hhGln = NC(=O)CCCC[C@H](N)C(=O)O; 4Pal = N[C@@H](Cc1ccncc1)C(=O)O; Cha = N[C@@H](CC1CCCCC1)C(=O)O; Cit = NC(=O)NCCC[C@H](N)C(=O)O; Ile(3ξ) = CCC(C)[C@H](N)C(=O)O; Thr(3ξ) = CC(O)[C@H](N)C(=O)O; 12Ado = NCCCCCCCCCCCC(=O)O; hSer = N[C@@H](CCO)C(=O)O; Carboxymethyl = O=C(O)C*; NMeA = CN[C@@H](C)C(=O)O; Orn = NCCC[C@H](N)C(=O)O; Aun = NCCCCCCCCCCC(=O)O; Dab = NCC[C@H](N)C(=O)O; Nva = CCC[C@H](N)C(=O)O; Dap = NC[C@H](N)C(=O)O; AEEA = NCCOCCOCC(=O)O; Ac3c = NC1(C(=O)O)CC1

In this experiment the target is T1, PD-1/PD-L1 interaction (PE-labeled human PD-L1-Ig binding to Jurkat cell line over-expressing human PD-1) (Homo sapiens, UniProt Q15116).
T1 construct: expressed in transfected cells; host or cells: Jurkat
T1 sequence (Q15116 25-288): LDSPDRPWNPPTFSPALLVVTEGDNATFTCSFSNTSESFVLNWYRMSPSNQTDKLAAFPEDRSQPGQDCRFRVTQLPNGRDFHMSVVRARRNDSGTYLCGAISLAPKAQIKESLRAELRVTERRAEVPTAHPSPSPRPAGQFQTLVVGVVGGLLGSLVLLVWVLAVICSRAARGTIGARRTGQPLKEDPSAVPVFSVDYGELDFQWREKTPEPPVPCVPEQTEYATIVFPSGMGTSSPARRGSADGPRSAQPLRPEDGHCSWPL
The experiment can be described thus: Jurkat-PD-1 Cell Binding High-Content Screening Assay (CBA). The following applies: Jurkat-hPD-1 cells, PE-labeled PD-L1-Ig 20 nM final; read-out: Jurkat HPD1 PDL1 IC50. In a few lines: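 Compound is added first to the PD-1-expressing Jurkat cells and held 2 h at 37 °C in serum-containing DMEM. The fluorescent PD-L1 fusion follows at 20 nM final for 1 h. Fixed, Hoechst-stained cells are then imaged for bound label.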
As to `CCC[C@@H]1NC(=O)[C@@H](CC(C)C)NC(=O)[C@H](C)N(C)C(=O)[C@H](C(C)C)NC(=O)[C@H](Cc2ccc(-c3ccccc3)cc2)NC(=O)[C@H](CC(C)C)NC(=O)[C@H](Cc2c[nH]c3ccccc23)NC(=O)[C@H](CC(=O)O)NC(=O)[C@H](Cc2ccc(C(=O)O)cc2)NC(=O)[C@H](Cc2ccc(OCC(=O)O)cc2)NC(=O)CSC[C@@H](C(=O)NCCOCCOCC(=O)NCCCCCCCCCCC(=O)O)NC(=O)[C@H](CCCCC(N)=O)NC(=O)[C@H](C(C)C)NC(=O)[C@H](CC2CCCCC2)NC1=O` [Example 2187] ({CH2CO}-Y(Carboxymethyl)[Phe(4-COOH)]DWL[Bip]V[NMeA][dL][Nva][Cha]V[hhGln]C[AEEA][Aun]-OH; thioether N-14), the pIC50 was 8.21.

Take `CC(C)C[C@H]1NC(=O)[C@H](C)N(C)C(=O)[C@H](Cc2ccc(OCC(=O)O)cc2)NC(=O)[C@H](Cc2ccc(-c3ccccc3)cc2)NC(=O)[C@H](Cc2ccc(OCC(=O)O)cc2)NC(=O)[C@H](Cc2c[nH]c3ccccc23)NC(=O)[C@H](CC(=O)O)NC(=O)[C@H](Cc2ccc(OCC(=O)O)cc2)NC(=O)[C@H]([C@@H](C)O)NC(=O)CSC[C@@H](C(=O)N[C@@H](CCCN)C(=O)NCCOCCOCC(=O)NCCCCCCCCCCC(=O)O)NC(=O)[C@H](CCC(=O)O)NC(=O)[C@H](C(C)C)NC(=O)[C@H](CC2CCCCC2)NC(=O)[C@H](CCN)NC1=O` [Example 1396] ({CH2CO}-TY(Carboxymethyl)DWY(Carboxymethyl)[Bip]Y(Carboxymethyl)[NMeA][dL][Dab][Cha]VEC[Orn][AEEA][Aun]-OH; thioether N-14): the pIC50 is 6.52.

For `CCC(C)[C@@H]1NC(=O)[C@H](Cc2ccc(-c3ccccc3)cc2)NC(=O)[C@H](C(C)C)NC(=O)[C@H](Cc2c[nH]c3ccccc23)NC(=O)[C@H](CC(=O)O)NC(=O)[C@H](Cc2ccc(OCC(=O)O)cc2)NC(=O)[C@H](C(C)O)NC(=O)CSC[C@@H](C(=O)N[C@@H](CCCN)C(=O)N[C@@H](CCC(=O)NCCCCCCCCCCCC(=O)O)C(=O)O)NC(=O)[C@H](CO)NC(=O)[C@H](C(C)C)NC(=O)[C@H](CC2CCCCC2)NC(=O)[C@H](CCN)NC(=O)[C@@H](CC(C)C)NC(=O)[C@H](C)N(C)C1=O` (stereo partly drawn) [Example 2047] ({CH2CO}-[Thr(3ξ)]Y(Carboxymethyl)DWV[Bip][Ile(3ξ)][NMeA][dL][Dab][Cha]VSC[Orn][γGlu][12Ado]-OH; thioether N-14), the negative-log IC50 (pIC50) is 7.45.

For `CC(C)C[C@H]1NC(=O)[C@H](C)N(C)C(=O)[C@H](Cc2ccc(OCC(=O)O)cc2)NC(=O)[C@H](Cc2ccc(-c3ccccc3)cc2)NC(=O)[C@H](Cc2ccc(OCC(=O)O)cc2)NC(=O)[C@H](Cc2c[nH]c3ccccc23)NC(=O)[C@H](CC(=O)O)NC(=O)[C@H](Cc2ccc(OCC(=O)O)cc2)NC(=O)[C@H]([C@@H](C)O)NC(=O)CSC[C@@H](C(=O)N[C@@H](CCN)C(=O)NCCOCCOCC(=O)NCCCCCCCCCCC(=O)O)NC(=O)[C@H]([C@@H](C)O)NC(=O)[C@H](C(C)C)NC(=O)[C@H](CC2CCCCC2)NC(=O)[C@H](CC(N)=O)NC1=O` [Example 1383] ({CH2CO}-TY(Carboxymethyl)DWY(Carboxymethyl)[Bip]Y(Carboxymethyl)[NMeA][dL]N[Cha]VTC[Dab][AEEA][Aun]-OH; thioether N-14), the negative-log IC50 (pIC50) was 7.00.

For `CC(C)C[C@@H]1NC(=O)[C@H](Cc2c[nH]c3ccccc23)NC(=O)[C@H](CC(=O)O)NC(=O)[C@H](Cc2ccc(OCC(=O)O)cc2)NC(=O)[C@H](CCCCNC(=N)N)NC(=O)CSC[C@@H](C(=O)N[C@@H](CCCN)C(=O)NCCOCCOCC(=O)NCCCCCCCCCCC(=O)O)NC(=O)[C@H](CCCNC(N)=O)NC(=O)[C@H](C(C)C)NC(=O)[C@H](CC2CCCCC2)NC(=O)[C@H](CN)NC(=O)[C@@H](CC(C)C)NC(=O)[C@H](C)N(C)C(=O)[C@H](C(C)C)NC(=O)[C@H](Cc2ccc(-c3ccccc3)cc2)NC1=O` [Example 2177] ({CH2CO}-[hArg]Y(Carboxymethyl)DWL[Bip]V[NMeA][dL][Dap][Cha]V[Cit]C[Orn][AEEA][Aun]-OH; thioether N-14), the pIC50 was 7.59.

Turning to `Cc1cccc(C[C@@H]2NC(=O)[C@H](CC(=O)O)NC(=O)[C@H](Cc3ccc(OCC(=O)O)cc3)NC(=O)[C@H](CN)NC(=O)CSC[C@@H](C(=O)NC3(C(=O)NCCOCCOCC(=O)NCCCCCCCCCCC(=O)O)CC3)NC(=O)[C@H](CCCN)NC(=O)[C@H](C(C)C)NC(=O)[C@H](CC3CCCCC3)NC(=O)[C@H](CCN)NC(=O)[C@@H](CC(C)C)NC(=O)[C@H](C)N(C)C(=O)[C@H](Cc3ccc(O)cc3)NC(=O)[C@H](Cc3ccc(-c4ccccc4)cc3)NC(=O)[C@H](Cc3ccc(O)cc3)NC2=O)c1` [Example 1252] ({CH2CO}-[Dap]Y(Carboxymethyl)D[Phe(3-Me)]Y[Bip]Y[NMeA][dL][Dab][Cha]V[Orn]C[Ac3c][AEEA][Aun]-OH; thioether N-14), the pIC50 is 7.64.

For the compound `Cc1cccc(C[C@@H]2NC(=O)[C@H](CC(=O)O)NC(=O)[C@H](Cc3ccc(OCC(=O)O)cc3)NC(=O)[C@H](CCCNC(=N)N)NC(=O)CSC[C@@H](C(=O)N[C@@H](CCCCN)C(=O)NCCCCCCCCCCC(=O)O)NC(=O)[C@H]([C@@H](C)O)NC(=O)[C@H](C(C)C)NC(=O)[C@H](CC3CCCCC3)NC(=O)[C@H](CCN)NC(=O)[C@@H](CC(C)C)NC(=O)[C@H](C)N(C)C(=O)[C@H](Cc3ccc(OCC(=O)O)cc3)NC(=O)[C@H](Cc3ccc(-c4ccccc4)cc3)NC(=O)[C@H](CCCNC(N)=O)NC2=O)c1` [Example 1227] ({CH2CO}-RY(Carboxymethyl)D[Phe(3-Me)][Cit][Bip]Y(Carboxymethyl)[NMeA][dL][Dab][Cha]VTCK[Aun]-OH; thioether N-14), the pIC50 is 7.47.

`CC(C)C[C@H]1NC(=O)[C@H](C)N(C)C(=O)[C@H](Cc2ccc(C(=O)O)cc2)NC(=O)[C@H](Cc2ccc(-c3ccccc3)cc2)NC(=O)[C@H](Cc2ccc(C(=O)O)cc2)NC(=O)[C@H](Cc2cccc(C(F)(F)F)c2)NC(=O)[C@H](CC(=O)O)NC(=O)[C@H](Cc2ccc(OCC(=O)O)cc2)NC(=O)[C@H](CN2CCOCC2)NC(=O)CSC[C@@H](C(=O)N[C@@H](CCN)C(=O)NCCOCCOCC(=O)N[C@@H](CCC(=O)NCCOCCOCC(=O)NCCCCCCCCCCCCC(=O)O)C(=O)O)NC(=O)[C@H](CO)NC(=O)[C@H](C(C)(C)O)NC(=O)[C@H](CC2CCCCC2)NC(=O)[C@H](CCN)NC1=O` [Example 1180] ({CH2CO}-[Ala(morpholin-4-yl)]Y(Carboxymethyl)D[Phe(3-CF3)][Phe(4-COOH)][Bip][Phe(4-COOH)][NMeA][dL][Dab][Cha][Val(3-OH)]SC[Dab][AEEA][γGlu][AEEA]-{NH(CH2)12COOH}; thioether N-14): the negative logarithm of the IC50 (pIC50) is 7.04.

Turning to `Cc1cccc(C[C@@H]2NC(=O)[C@H](CC(=O)O)NC(=O)[C@H](Cc3ccc(OCC(=O)O)cc3)NC(=O)[C@H](CN)NC(=O)CSC[C@@H](C(=O)N[C@@H](CCN)C(=O)NCCCCCCCCCCC(=O)O)NC(=O)[C@H](CCCN)NC(=O)[C@H](C(C)C)NC(=O)[C@H](CC(C)C)NC(=O)[C@H](CCN)NC(=O)[C@@H](CC(C)C)NC(=O)[C@H](C)N(C)C(=O)[C@H](Cc3ccc(O)cc3)NC(=O)[C@H](Cc3ccc(-c4ccccc4)cc3)NC(=O)[C@H](Cc3ccc(O)cc3)NC2=O)c1` [Example 1255] ({CH2CO}-[Dap]Y(Carboxymethyl)D[Phe(3-Me)]Y[Bip]Y[NMeA][dL][Dab]LV[Orn]C[Dab][Aun]-OH; thioether N-14), the pIC50 is 6.69.

Regarding `CC(C)C[C@H]1NC(=O)[C@H](C)N(C)C(=O)[C@H](CCCNC(N)=O)NC(=O)[C@H](Cc2ccc(-c3ccccc3)cc2)NC(=O)[C@H](C(C)C)NC(=O)[C@H](Cc2c[nH]c3ccccc23)NC(=O)[C@H](CC(=O)O)NC(=O)[C@H](Cc2ccc(OCC(=O)O)cc2)NC(=O)[C@H](Cc2ccc(OCC(=O)O)cc2)NC(=O)CSC[C@@H](C(=O)NCCOCCOCC(=O)NCCCCCCCCCCC(=O)O)NC(=O)[C@H](CCO)NC(=O)[C@H](C(C)C)NC(=O)[C@H](CC2CCCCC2)NC(=O)[C@H](CCN)NC1=O` [Example 2319] ({CH2CO}-Y(Carboxymethyl)Y(Carboxymethyl)DWV[Bip][Cit][NMeA][dL][Dab][Cha]V[hSer]C[AEEA][Aun]-OH; thioether N-14), the negative-log IC50 (pIC50) is 7.81.

Take `CC(C)C[C@@H]1NC(=O)[C@H](Cc2c[nH]c3ccccc23)NC(=O)[C@H](CC(=O)O)NC(=O)[C@H](Cc2ccncc2)NC(=O)[C@H](Cc2ccc(OCC(=O)O)cc2)NC(=O)CSC[C@@H](C(=O)N[C@@H](CCCN)C(=O)NCCOCCOCC(=O)NCCCCCCCCCCC(=O)O)NC(=O)[C@H](CO)NC(=O)[C@H](C(C)C)NC(=O)[C@H](CC2CCCCC2)NC(=O)[C@H](CCN)NC(=O)[C@@H](CC(C)C)NC(=O)[C@H](C)N(C)C(=O)[C@H](C(C)C)NC(=O)[C@H](Cc2ccc(-c3ccccc3)cc2)NC1=O` [Example 1090] ({CH2CO}-Y(Carboxymethyl)[4Pal]DWL[Bip]V[NMeA][dL][Dab][Cha]VSC[Orn][AEEA][Aun]-OH; thioether N-14): the pIC50 was 8.08.

As to `Cc1cccc(C[C@@H]2NC(=O)[C@H](CC(=O)O)NC(=O)[C@H](Cc3ccc(OCC(=O)O)cc3)NC(=O)[C@H](Cc3ccc(OCC(=O)O)cc3)NC(=O)CSC[C@@H](C(=O)NCCOCCOCC(=O)NCCCCCCCCCCC(=O)O)NC(=O)[C@H](CCCNC(=N)N)NC(=O)[C@H](C(C)C)NC(=O)[C@H](CC3CCCCC3)NC(=O)[C@H](CCN)NC(=O)[C@@H](CC(C)C)NC(=O)[C@H](C)N(C)C(=O)[C@H](Cc3ccc(O)cc3)NC(=O)[C@H](Cc3ccc(-c4ccccc4)cc3)NC(=O)[C@H](CC(C)C)NC2=O)c1` [Example 2280] ({CH2CO}-Y(Carboxymethyl)Y(Carboxymethyl)D[Phe(3-Me)]L[Bip]Y[NMeA][dL][Dab][Cha]VRC[AEEA][Aun]-OH; thioether N-14), the pIC50 is 6.99.
